# Test results from PMC11649115, “In vitro safety evaluation of dopamine D3R antagonist, R-VK4-116, as a potential medication for the treatment of opioid use disorder” (PLOS ONE, 2024).
# Experiments:
# [1] = Stability in the absence of hepatocytes; conditions: no hepatocytes
# Method: CYP3A4 substrate Midazolam (10 μM) was prepared and incubated in the same manner. […] In addition, in vitro half-life (t1/2, min) and intrinsic clearance (CLint, μl/min/10^6 cells) were calculated [10, 11].
# [2] = system: CYP3A4; assay: CYP induction, in situ catalytic activity, human hepatocytes; type: in vitro ADME
# [3] = target: T1, CYP1A2 (Homo sapiens, UniProt P05177); assay: CYP inhibition in human liver microsomes; conditions: human liver microsomes
# T1 sequence (P05177 1-516): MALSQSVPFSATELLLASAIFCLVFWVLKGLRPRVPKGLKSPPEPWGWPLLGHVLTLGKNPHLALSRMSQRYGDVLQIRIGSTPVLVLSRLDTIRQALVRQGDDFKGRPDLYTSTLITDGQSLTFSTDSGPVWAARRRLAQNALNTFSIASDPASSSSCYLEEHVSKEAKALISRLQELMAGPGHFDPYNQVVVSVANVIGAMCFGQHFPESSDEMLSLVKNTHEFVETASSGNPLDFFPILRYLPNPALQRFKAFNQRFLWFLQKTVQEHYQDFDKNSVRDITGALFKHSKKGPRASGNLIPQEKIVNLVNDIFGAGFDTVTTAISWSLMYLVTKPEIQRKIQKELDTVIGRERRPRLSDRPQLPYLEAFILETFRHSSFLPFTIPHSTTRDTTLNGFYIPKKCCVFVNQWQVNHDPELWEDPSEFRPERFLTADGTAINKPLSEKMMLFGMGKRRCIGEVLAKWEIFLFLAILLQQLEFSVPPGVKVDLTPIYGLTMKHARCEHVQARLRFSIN
# [4] = Metabolic stability in liver microsomes; conditions: human, pH 7.4
# [5] = system: cardiovascular effects; conditions: rats, up to 25 mg/kg ref 9; cited from earlier work
# [6] = system: CYP1A2, CYP2B6, CYP2C8, CYP2C9, CYP2C19; assay: CYP phenotyping, other recombinant CYP isoforms; type: in vitro ADME; conditions: 1 μM, up to 120 min
# Method: CYP phenotyping involved the identification of CYP isoforms, which involved in the metabolism of R-VK4-116 using recombinant CYP1A2, CYP2B6, CYP2C8, CYP2C9, CYP2C19, CYP2D6, and CYP3A4 (XenoTech, LLC, Kansas City, KS), followed by determination of the Km and Vmax for the metabolites formed by the major CYP isoforms. […] In addition, R-VK4-116 was also incubated with all components in the absence of NADPH. […] Following brief vortexing and centrifugation, 50 μl of supernatant was mixed with 450 μl of 25:75:0.2 acetonitrile/water/formic acid for analysis by LC-MS/MS to determine the remaining R-VK4-116 at each time point based on peak area ratio (PAR) of R-VK4-116 to IS. As a positive control, the known substrate of each individual CYP isoform (phenacetin for CYP1A2, bupropion for CYP2B6, paclitaxel for CYP2C8, diclofenac for CYP2C9, diazepam for CYP2C19, bufuralol for CYP2D6, and testosterone for CYP3A4) was also incubated.
# [7] = system: 10 enzyme targets; assay: Enzyme and uptake assays; type: biochemical; conditions: 10 μM
# Method: The purpose of this study was to provide a first step in preliminary safety assessments by providing early identification of potential off-target interactions for the optimization of safety margins. This study was conducted by Eurofins Cerep (France) and Eurofins Discovery (St. Charles, MO). R-VK4-116 was tested in enzyme and uptake assay with 10 enzyme targets (Figs 4 and 5 in S1 File), and cellular and nuclear receptor functional assays with 24 receptor targets (Figs 5 and 6 in S1 File). Compound enzyme inhibition effect was calculated as a % inhibition of control enzyme activity. The cellular agonist effect was calculated as a % of the control response to a known reference agonist for each target, and the cellular antagonist effect was calculated as a % inhibition of the control reference agonist response for each target.
# [8] = heat-inactivated liver microsomes
smiles,measurement,setting,value
"CCc1cc(Cl)c(OC)c(N2CCN(CC(O)CCNC(=O)c3cc4ccccc4[nH]3)CC2)c1 (stereo not drawn) [R-VK4-116, N-(4-(4-(3-chloro-5-ethyl-2-methoxyphenyl)piperazin-1-yl)-3-hydroxybutyl)-1H-indole-2-carboxamide]",% remaining Vs T = 0 min,"[1]; 0.5 μM, 0 min",100.0%
same,% remaining Vs T = 0 min,"[1]; 0.5 μM, 30 min",86.2%
same,% remaining Vs T = 0 min,"[1]; 0.5 μM, 60 min",81.6%
same,% remaining Vs T = 0 min,"[1]; 0.5 μM, 90 min",79.9%
same,% remaining Vs T = 0 min,"[1]; 0.5 μM, 120 min",78.4%
same,% remaining Vs T = 0 min,"[1]; 10 μM, 0 min",100.0%
same,% remaining Vs T = 0 min,"[1]; 10 μM, 30 min",92.9%
same,% remaining Vs T = 0 min,"[1]; 10 μM, 60 min",87.5%
same,% remaining Vs T = 0 min,"[1]; 10 μM, 90 min",87.9%
same,% remaining Vs T = 0 min,"[1]; 10 μM, 120 min",77.3%
same,CYP3A4 activity,[2]; 0.01 to 10 μM,did not increase
same,"Fold of Vehicle Control (CYP3A4 activity, testosterone-6β-hydroxylation)","[2]; hepatocyte Lot 336, 0.01 µM",0.96 fold
same,Testosterone-6β- Hydroxylation,"[2]; hepatocyte Lot 336, 0.01 µM",9.1 pmol/min/106 cells
same,"Fold of Vehicle Control (CYP3A4 activity, testosterone-6β-hydroxylation)","[2]; hepatocyte Lot 336, 0.1 µM",0.80 fold
same,Testosterone-6β- Hydroxylation,"[2]; hepatocyte Lot 336, 0.1 µM",7.5 pmol/min/106 cells
same,"Fold of Vehicle Control (CYP3A4 activity, testosterone-6β-hydroxylation)","[2]; hepatocyte Lot 336, 1 µM",0.66 fold
same,Testosterone-6β- Hydroxylation,"[2]; hepatocyte Lot 336, 1 µM",6.3 pmol/min/106 cells
same,"Fold of Vehicle Control (CYP3A4 activity, testosterone-6β-hydroxylation)","[2]; hepatocyte Lot 336, 3 µM",0.63 fold
same,Testosterone-6β- Hydroxylation,"[2]; hepatocyte Lot 336, 3 µM",5.9 pmol/min/106 cells
same,"Fold of Vehicle Control (CYP3A4 activity, testosterone-6β-hydroxylation)","[2]; hepatocyte Lot 336, 5 µM",0.64 fold
same,Testosterone-6β- Hydroxylation,"[2]; hepatocyte Lot 336, 5 µM",6.1 pmol/min/106 cells
same,"Fold of Vehicle Control (CYP3A4 activity, testosterone-6β-hydroxylation)","[2]; hepatocyte Lot 336, 10 µM",0.55 fold
same,"Fold of Vehicle Control (CYP3A4 activity, testosterone-6β-hydroxylation)","[2]; hepatocyte Lot 348B, 0.01 µM",1.0 fold
same,"Fold of Vehicle Control (CYP3A4 activity, testosterone-6β-hydroxylation)","[2]; hepatocyte Lot 348B, 0.1 µM",1.0 fold
same,"Fold of Vehicle Control (CYP3A4 activity, testosterone-6β-hydroxylation)","[2]; hepatocyte Lot 348B, 1 µM",0.70 fold
same,"Fold of Vehicle Control (CYP3A4 activity, testosterone-6β-hydroxylation)","[2]; hepatocyte Lot 348B, 3 µM",0.56 fold
same,"Fold of Vehicle Control (CYP3A4 activity, testosterone-6β-hydroxylation)","[2]; hepatocyte Lot 348B, 5 µM",0.56 fold
same,"Fold of Vehicle Control (CYP3A4 activity, testosterone-6β-hydroxylation)","[2]; hepatocyte Lot 348B, 10 µM",0.49 fold
same,"Fold of Vehicle Control (CYP3A4 activity, testosterone-6β-hydroxylation)","[2]; hepatocyte Lot 399, 0.01 µM",1.0 fold
same,Testosterone-6β- Hydroxylation,"[2]; hepatocyte Lot 399, 0.01 µM",58 pmol/min/106 cells
same,"Fold of Vehicle Control (CYP3A4 activity, testosterone-6β-hydroxylation)","[2]; hepatocyte Lot 399, 0.1 µM",0.89 fold
same,Testosterone-6β- Hydroxylation,"[2]; hepatocyte Lot 399, 0.1 µM",49 pmol/min/106 cells
same,"Fold of Vehicle Control (CYP3A4 activity, testosterone-6β-hydroxylation)","[2]; hepatocyte Lot 399, 1 µM",0.45 fold
same,Testosterone-6β- Hydroxylation,"[2]; hepatocyte Lot 399, 1 µM",25 pmol/min/106 cells
same,"Fold of Vehicle Control (CYP3A4 activity, testosterone-6β-hydroxylation)","[2]; hepatocyte Lot 399, 3 µM",0.32 fold
same,Testosterone-6β- Hydroxylation,"[2]; hepatocyte Lot 399, 3 µM",18 pmol/min/106 cells
same,"Fold of Vehicle Control (CYP3A4 activity, testosterone-6β-hydroxylation)","[2]; hepatocyte Lot 399, 5 µM",0.30 fold
same,Testosterone-6β- Hydroxylation,"[2]; hepatocyte Lot 399, 5 µM",16 pmol/min/106 cells
same,"Fold of Vehicle Control (CYP3A4 activity, testosterone-6β-hydroxylation)","[2]; hepatocyte Lot 399, 10 µM",0.23 fold
same,Testosterone-6β- Hydroxylation,"[2]; hepatocyte Lot 399, 10 µM",13 pmol/min/106 cells
same,CYP1A2 inhibition,[3]; up to 100 μM,did not inhibit CYP significantly
same,"activity at 20 min, 0.1 µM","[3]; human, probe phenacetin",93.7 ± 5.5%
same,"activity at 20 min, 0.3 µM","[3]; human, probe phenacetin",87.7 ± 2.4%
same,"activity at 20 min, 1 µM","[3]; human, probe phenacetin",89.9 ± 0.9%
same,"activity at 20 min, 3 µM","[3]; human, probe phenacetin",95.7 ± 5.2%
same,"activity at 20 min, 10 µM","[3]; human, probe phenacetin",96.3 ± 4.7%
same,"activity at 20 min, 30 µM","[3]; human, probe phenacetin",88.7 ± 1.9%
same,"activity at 20 min, 60 µM","[3]; human, probe phenacetin",88.2 ± 2.3%
same,"activity at 20 min, 100 µM","[3]; human, probe phenacetin",94 ± 5.2%
same,"remaining at 0 h, 1 μM",[4]; [8],100%
same,"remaining at 0 h, 10 μM",[4]; [8],100%
same,"remaining at 2 h, 1 μM",[4]; [8],96.7%
same,"remaining at 2 h, 10 μM",[4]; [8],95.1%
same,"remaining at 0 h, 1 μM",[4]; liver microsomes,100%
same,"remaining at 0 h, 10 μM",[4]; liver microsomes,100%
same,"remaining at 0.5 h, 1 μM",[4]; liver microsomes,41.1%
same,"remaining at 0.5 h, 10 μM",[4]; liver microsomes,69.7%
same,"remaining at 1 h, 1 μM",[4]; liver microsomes,25.9%
same,"remaining at 1 h, 10 μM",[4]; liver microsomes,60.1%
same,"remaining at 1.5 h, 1 μM",[4]; liver microsomes,22.3%
same,"remaining at 1.5 h, 10 μM",[4]; liver microsomes,55.5%
same,"remaining at 2 h, 1 μM",[4]; liver microsomes,16.4%
same,"remaining at 2 h, 10 μM",[4]; liver microsomes,48.9%
same,potentiation of the cardiovascular effects of cocaine or oxycodone,[5],did not potentiate
same,metabolism by other CYP isoforms,[6],Minimal to no metabolism
same,enzyme inhibition effects or uptake,[7],did not show any enzyme inhibition effects or uptake
